Source: publication PMC12605013, “SAG1.3-derived Frizzled-targeting small-molecule compounds” (The Journal of Biological Chemistry, 2025)

Columns and labels:
[1] = target: T1, firefly luciferase (Fluc) (Photinus pyralis, UniProt P08659); assay: Fluc counter assay (CMV-driven recombinant Fluc in HEK293 cells); assay type: cell-based; settings: counter assay for readout interference
T1 construct: expressed in transfected cells; host or cells: HEK293 cells
Protocol: Figure S3. […] Experiments were performed in HEK293 cells.

[2] = system: HiBiT-FZD4, HiBiT-FZD7 or HiBiT-FZD8; assay: TOPFlash reporter gene assay, test for paralog selectivity; settings: 10 µM compound; 300 ng/mL WNT-3A
Protocol: The transfected cell suspension was then seeded (45,000 cells/well) into a PDL-coated, white opaque 96-well plate. One day after transfection, cells were washed once with HBSS, and 80 μl of serum-free DMEM containing 10 nM of the porcupine inhibitor C59 were added. […] All ligands/vehicle controls were diluted in serum-free DMEM containing 10 nM C59. One day after ligand stimulation, cells were washed once with HBSS, and the lysis was started using 1× Passive Lysis Buffer (Promega; catalog no.: E1910, 20 μl/well), after which the plate was shaken for 20 min at room temperature. Fluc and Rluc bioluminescence were then assessed using the Dual-Luciferase Assay System (Promega; catalog no.: E1910, 20 μl of both LARII [Luciferase Assay II reagent] and 1× Stop-and-Glo Reagent). Measurements were performed using a TECAN Spark multimode microplate reader.
For reporter gene assays, the TOPFlash ratio was defined as the ratio of β-catenin-dependent gene transcription (Fluc) over a constitutively expressed transfection control (Rluc). For all experiments, the calculated TOPFlash ratios were normalized to the respective vehicle conditions.
Experiments were performed in ΔFZD1-10 HEK293T cells transiently transfected with HiBiT-FZD4 (A), HiBiT-FZD7 (B) or HiBiT-FZD8 (C). Data represent mean values ± SEM from three independent experiments performed in triplicate. […]

[3] = system: PANC-1 cells; assay: Cell viability (AlamarBlue) of PANC-1 cells; assay type: cell-based, human; settings: one-week treatment; 10 µM
Protocol: HPAF-II cells and PANC-1 cells were seeded in DMEM at a density of 1000 cells per well into a black opaque 96-well plate (Greiner BioOne). After 1 day, the medium was exchanged with complete DMEM containing either compound 11, the porcupine inhibitor C59, or DMSO (vehicle control). After 3 days of incubation (37 °C, 5% CO2), the medium was exchanged once again with DMEM containing the same concentration of ligands or DMSO (vehicle control). Three days after (equal to 7 days after seeding), the medium was removed and 90 μl of fresh DMEM (without any ligands) were added. Last, 10 μl of AlamarBlue HS reagent (Thermo Fisher Scientific; catalog no.: A50100) were added to each well, and the cells were incubated for 4 h at 37 °C inside the incubator (5% CO2). After the incubation step, fluorescence was read using a TECAN Spark multimode microplate reader (excitation: 535 ± 25 nm, emission: 595 ± 35 nm).
For each cell viability experiment, the fluorescence measured in ligand-treated wells was normalized to the average fluorescence from wells treated with vehicle control (DMSO).

[4] = target: T2, HiBiT-FZD6 (Homo sapiens, UniProt O60353); assay: NanoBiT cell surface expression assay, HiBiT-FZD6; assay type: cell-based; settings: 10 μM, overnight exposure
T2 construct: expressed in transfected cells; host or cells: HEK293A cells
T2 sequence (O60353 19-706): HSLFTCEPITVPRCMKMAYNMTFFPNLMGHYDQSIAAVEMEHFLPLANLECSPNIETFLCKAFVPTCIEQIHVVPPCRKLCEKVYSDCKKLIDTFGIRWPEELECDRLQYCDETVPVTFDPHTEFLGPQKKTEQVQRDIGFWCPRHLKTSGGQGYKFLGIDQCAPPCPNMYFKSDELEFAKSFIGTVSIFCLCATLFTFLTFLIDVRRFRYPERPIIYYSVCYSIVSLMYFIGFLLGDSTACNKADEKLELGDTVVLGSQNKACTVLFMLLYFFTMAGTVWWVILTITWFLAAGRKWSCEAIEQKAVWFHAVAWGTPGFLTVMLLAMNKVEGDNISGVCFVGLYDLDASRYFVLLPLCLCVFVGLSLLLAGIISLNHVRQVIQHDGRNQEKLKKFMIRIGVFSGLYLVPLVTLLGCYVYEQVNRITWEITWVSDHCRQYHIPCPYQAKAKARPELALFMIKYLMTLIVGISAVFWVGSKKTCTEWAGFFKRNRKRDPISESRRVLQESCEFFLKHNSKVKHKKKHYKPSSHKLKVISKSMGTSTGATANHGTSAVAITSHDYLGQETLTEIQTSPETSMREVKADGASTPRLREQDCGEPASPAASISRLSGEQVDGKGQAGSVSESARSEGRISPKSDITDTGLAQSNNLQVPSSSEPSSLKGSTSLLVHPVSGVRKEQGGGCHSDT
Protocol: Subsequently, 10 μl of either compound 11 or 26 (DD436001) was added at a final concentration of 10 μM. DMSO was added separately as a control. One day after compound or DMSO addition, cells were washed once with HBSS, and 90 μl of HBSS was added to the wells. To measure cell surface expression, a 1:20 dilution of furimazine live cell substrate and 1:20 LgBiT mix (final dilution = 1:200) were prepared in HBSS and 10 μl was added. The plate was incubated for 30 min to allow for HiBiT–LgBiT complementation, and then luminescence was measured on a TECAN Spark multimode microplate reader between 460 and 500 nm (integration time: 200 ms).
Figure S4. BRET time-course of compound 11 at the FZD5-DEP-Clamp in agonist mode and HiBiT-FZD5/6 surface expression upon compound exposure. (A) Shown is the BRET time-course recorded upon addition of 30 µM compound 11 or vehicle (DMSO). Experiments were performed in HEK293A cells stably expressing the FZD5-DEP-Clamp sensor. […] The timepoint of ligand addition is indicated by a black arrow. (B, C) Impact of compound 11 on FZD cell surface expression. The cell surface pool of transiently-transfected HiBiT-FZD5 (B) and HiBiT-FZD6 (C) was assessed by addition of recombinant LgBiT in combination with detection of NanoBiT luminescence. […]

T1 sequence (P08659 whole entry): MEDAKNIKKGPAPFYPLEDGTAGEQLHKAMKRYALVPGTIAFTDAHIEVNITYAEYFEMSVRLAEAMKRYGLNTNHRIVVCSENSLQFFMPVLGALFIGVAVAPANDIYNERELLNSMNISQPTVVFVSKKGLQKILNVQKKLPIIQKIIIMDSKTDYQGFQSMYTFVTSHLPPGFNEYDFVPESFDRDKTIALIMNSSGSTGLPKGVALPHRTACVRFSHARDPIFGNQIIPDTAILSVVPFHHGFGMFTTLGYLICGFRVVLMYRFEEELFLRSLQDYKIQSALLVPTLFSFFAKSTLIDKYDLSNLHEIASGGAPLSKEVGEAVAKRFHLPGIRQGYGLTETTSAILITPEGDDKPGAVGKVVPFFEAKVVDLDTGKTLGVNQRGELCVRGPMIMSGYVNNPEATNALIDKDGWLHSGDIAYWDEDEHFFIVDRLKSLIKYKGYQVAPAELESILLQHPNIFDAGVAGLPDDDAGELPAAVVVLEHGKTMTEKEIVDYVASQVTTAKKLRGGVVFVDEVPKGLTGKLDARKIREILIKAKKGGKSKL

## CC(=O)Nc1cccc(C(=O)NC2CCC(N(Cc3cccc(-c4ccncc4)c3)C(=O)c3sc4ccccc4c3Cl)CC2)c1 (stereo not shown) [compound 11, N-((1r,4r)-4-(3-Acetamidobenzamido)cyclohexyl)-3-chloro-N-(3-(pyridin-4-yl)benzyl)benzo[b]thiophene-2-carboxamide]
[1]
  Interference with Fluc bioluminescence: interferes with Fluc bioluminescence
[2]
  Subtype preference in TOPFlash assays: did not show a subtype preference
[3]
  Cell viability of RNF43-wildtype PANC-1 cells: not significantly affected
[4]
  Effect on surface levels of HiBiT-FZD6: had no effect
